Test results published in BigSolDB 2.1.

Conditions: in n-hexane

solubility (mole fraction) (293.15 K)	solubility (mole fraction) (298.15 K)	solubility (mole fraction) (303.15 K)	solubility (mole fraction) (310.15 K)	solubility (mole fraction) (315.15 K)	Structure (SMILES)
5.39e-05	6.26e-05	6.91e-05	8.03e-05	8.67e-05	CNC1=NCCC2(CCCCC2)S1
0.0025	0.0028	0.0031	0.0037	0.0043	CCNC1=NCCC2(CCCCC2)S1
3.81e-05	5.62e-05	7.2e-05	0.000105	0.000129	NC1=NCCC2(CCCCC2)S1
